Test results reported in PubChem BioAssay AID686961 (Sanford-Burnham Center for Chemical Genomics, 2013).
Active and inactive are the calls of the source.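 The calls were made as follows: active = IC50 at or below 20 µM; inactive = the rest.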

Target: Dual specificity protein phosphatase 3 (Homo sapiens) (UniProt P51452)
Test: VHR-1 phosphatase inhibitors, dose response, selectivity assay for LMPTP inhibitor project, biochemical, fluorescence, OMFP substrate (AID 686961)
Conditions: recombinant VHR-1 enzyme, OMFP fluorogenic substrate, 50 min

Dual specificity protein phosphatase 3 (Homo sapiens), sequence (P51452 whole entry, looked up): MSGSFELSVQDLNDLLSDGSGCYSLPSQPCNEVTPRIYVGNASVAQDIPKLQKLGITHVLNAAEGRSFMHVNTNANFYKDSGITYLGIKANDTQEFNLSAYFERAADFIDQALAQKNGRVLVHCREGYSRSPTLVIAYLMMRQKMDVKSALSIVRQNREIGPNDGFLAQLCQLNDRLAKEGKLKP

| IC50 | SMILES |
| --- | --- |
| > 80 µM (inactive) | CNc1nc(NC)c2cn[nH]c2n1 |
| inactive | Nc1nc(N)c(Cc2ccc(Cl)cc2Cl)c(N)n1 |
| 1.38 µM | CC(Nc1nc(N2CCNCC2)nc2ccccc12)c1ccccc1 (stereo unspecified) |
| 5.57 µM | O=c1cc(-c2cc3ccccc3o2)c2cc(O)ccc2o1 |
| inactive | Clc1cccc(Cl)c1Cn1cnc(=NCc2ccco2)c2[nH]cnc21 |
| 5.64 µM | COc1ccccc1CNc1nc(NCc2ccc(NC(C)=O)cc2)c2sccc2n1 |
| 19.5 µM | Cc1cc(N2CCC(C)CC2)nc2cccc(O)c12 |
| > 80 µM (inactive) | O=C(OCCNc1nc(-c2ccccc2)nc2ccccc12)c1ccncc1 |
| > 80 µM (inactive) | Cc1cccc(-c2nc(NCCCN3CCOCC3)c3ccccc3n2)c1 |
| 12.5 µM | c1ccc(-c2cc(NCCN3CCCCC3)c3ccccc3n2)cc1 |
| 3.82 µM | CCCCC(=O)Nc1ccc(C(=O)NNC(=O)c2ccc(C)c(Br)c2)cc1 |
| inactive | COCCNc1nc(NCc2cccc(OC)c2OC)c2sccc2n1 |
| 17.6 µM | Cc1[nH]ccc2cc3nc4ccccc4c3cc12 |
| > 80 µM (inactive) | Cc1ccccc1Nc1cc(C)c2c(O)cccc2n1 |
| 2.29 µM | O=C(/C=C/c1ccccc1Cl)Nc1ccc2c(c1)C(=O)NC2=O |
| 1.4 µM | NS(=O)(=O)c1ccc(CNC(=O)Cc2cccs2)cc1 |
| 1.49 µM | NC(=O)Cc1ccc(C(=O)CSc2nnc(-c3ccncc3)n2C2CC2)s1 |
| inactive | CC(C)Oc1ccc(-c2nc(NCC3CCCO3)c3ccccc3n2)cc1 (stereo unspecified) |
| 9.62 µM | COc1ccc(-c2ccc(/C=N/NC(=O)c3cccnc3)o2)c([N+](=O)[O-])c1 |
| inactive | Cc1ccc(-c2nc(NCc3cccnc3)c3ccccc3n2)cc1 |
| 2.63 µM | CCOC(=O)C1=C(C)N=c2sc(=Cc3ccc(OCC(=O)O)cc3)c(=O)n2C1c1ccc(Cl)cc1 (stereo unspecified) |
| 0.7 µM | O=C(CCCOc1ccc(Cl)cc1Cl)NNC(=O)c1ccc(NC(=O)c2ccccc2)cc1 |
| 12.1 µM | CC(=O)Nc1ccc(S(=O)(=O)N2CCN(c3nc(NC4CCCC4)c4ccccc4n3)CC2)cc1 |
| 5.89 µM | CCOC(=O)c1cc(-c2ccc(N3CCOCC3)cc2)nn1-c1ccccc1C(=O)O |

| IC50 | SMILES |
| --- | --- |
| 10.5 µM | O=C(/C=C/c1ccc(Br)cc1)NC(=O)c1ccccc1O |
| > 80 µM (inactive) | Cc1ccc(-c2nc(NCCN3CCOCC3)c3ccccc3n2)cc1 |
| 2.9 µM | Cc1cc2oc(=O)cc(-c3cc4ccccc4o3)c2cc1O |
| 5.57 µM | O=C(N/N=C/c1ccc(OC(=O)c2cccs2)cc1)c1cccc(F)c1 |
| inactive | CC(C)OCCCNc1nc(-c2ccccc2)nc2ccccc12 |
| 12.4 µM | COc1cccc(N2CCN(C(=O)c3ccc(CSc4nc5ccncc5[nH]4)cc3)CC2)c1 |
| 5.71 µM | O=C(COc1ccc(/C=N/NC(=O)c2ccc(O)cc2)cc1)Nc1cccc([N+](=O)[O-])c1 |
| 13 µM | O=C(CCN1C(=O)/C(=C/c2ccc3c(c2)OCO3)SC1=S)Nc1ccc(C(=O)O)cc1 |
| inactive | CN1/C(=C/C=C/c2n(C)c3cc([N+](=O)[O-])c([N+](=O)[O-])cc3[n+]2C)C(C)(C)c2ccccc21 |
| 12.4 µM | N=c1c(C(=O)NCc2ccc3c(c2)OCO3)cc2c(=O)n3ccccc3nc2n1Cc1cccnc1 |
| inactive | COc1ccccc1CNc1nc(NCc2cnc(C)cn2)c2sccc2n1 |
| > 80 µM (inactive) | c1ccc(-c2nc(NCCCN3CCOCC3)c3ccccc3n2)cc1 |
| > 80 µM (inactive) | c1ccc(-c2cc(N3CCCCC3)c3ccccc3n2)cc1 |
| 2.01 µM | O=C(NNC(=O)c1cc2cc3ccccc3nc2s1)c1cccc(Cl)c1 |
| 1.97 µM | O=C(N/N=C/c1ccc(Br)s1)c1cccc([N+](=O)[O-])c1 |
| 2.05 µM | CCN(c1ccccc1)S(=O)(=O)c1cc(C(=O)O)ccc1C |
| inactive | NS(=O)(=O)c1ccc(CCNC(=O)c2ccc3nccnc3c2)cc1 |
| 14.3 µM | COc1cccc(CNc2nc(NCC3CC3)nc3ccsc23)c1OC |
| inactive | Cc1c(CCC(=O)O)c(=O)oc2c(C)c(OCc3ccccc3Cl)ccc12 |
| 9.27 µM | CC(=O)Nc1ccc(CNc2nc(NCc3cccs3)nc3ccsc23)cc1 |
| > 80 µM (inactive) | Cc1[nH]ccc(=O)c1Cc1c(Cl)cccc1Cl |
| inactive | Cc1cc(N2CCN(S(=O)(=O)c3ccc(Cl)c(Cl)c3)CC2)c2ccccc2n1 |
| > 80 µM (inactive) | CN(C)c1nc(N)nc(/C(C#N)=C/C2CC3C=CC2C3)n1 (stereo unspecified) |
| 1.63 µM | O=C(N/N=C\C=C\c1ccc(Br)cc1)c1ccc2c(c1)OCO2 |

| IC50 | SMILES |
| --- | --- |
| > 80 µM (inactive) | O=C(OCCNc1nc(-c2ccccc2)nc2ccccc12)c1cccnc1 |
| 5.41 µM | Cc1c(CCC(=O)O)c(=O)oc2c(C)c3occ(-c4ccc(Cl)cc4)c3cc12 |
| > 80 µM (inactive) | Cc1nc(N)nc(N)c1-c1ccc([N+](=O)[O-])cc1 |
| 12.4 µM | COc1ccc(Nc2nc(NCc3cccs3)nc3ccsc23)cc1OC |
| 6.01 µM | C/C(=N\NC(=O)c1ccc(OC2OCCOC2Oc2ccc(C(=O)N/N=C(\C)c3ccncc3)cc2)cc1)c1ccncc1 (stereo unspecified) |
| 0.91 µM | CC1C(=O)N(Cc2cn(Cc3ccco3)nn2)CCS(=O)(=O)N1Cc1ccc(-c2cccnc2)cc1 (stereo unspecified) |
| inactive | Fc1ccccc1-c1nc(NC2CCCC2)c2ccccc2n1 |
| 10.8 µM | CCc1nc(N)nc(N)c1-c1ccc(NCCN)c([N+](=O)[O-])c1 |
| > 80 µM (inactive) | c1ccc(-c2nc(NCc3cccnc3)c3ccccc3n2)cc1 |
| 1.59 µM | O=C(Nc1ccc2oc(-c3ccccc3F)nc2c1)c1ccc([N+](=O)[O-])o1 |
| 1.27 µM | Cc1ccc(-c2nc(NC(=O)CSc3cc(C)c4ccccc4n3)ns2)cc1 |
| 2.41 µM | COc1cccc2c1[C@@H]1CN(CCCCn3c(=O)[nH]c4c(sc5ncc(-c6ccccc6)nc54)c3=O)C[C@@H]1CO2 |
| 3.31 µM | CCOc1cc(/C=N/N=C2/NC(=O)C(CC(=O)O)S2)ccc1OCc1ccc(Cl)cc1Cl (stereo unspecified) |
| 0.4 µM | CCOC(=O)Cn1c(=NC(=O)c2sc3ccccc3c2Cl)sc2cc(S(N)(=O)=O)ccc21 |
| > 80 µM (inactive) | Fc1ccccc1-c1nc(NCCCN2CCOCC2)c2ccccc2n1 |
| > 80 µM (inactive) | Cc1cccc2nc(-c3ccccc3)nc(N[C@@H](CO)c3ccccc3)c12 |
| 1.83 µM | CCOC(=O)C1=C(C)N=c2sc(=Cc3ccc(OCC(=O)O)cc3)c(=O)n2C1c1ccc(SC)cc1 (stereo unspecified) |
| > 80 µM (inactive) | c1ccc(-c2nc(NCCCn3ccnc3)c3ccccc3n2)cc1 |
| 0.55 µM | O=C1C(=Cc2cn(-c3ccccc3)nc2-c2ccc(OCc3ccccc3)cc2)SC(=S)N1CCS(=O)(=O)O |
| 11.1 µM | O=C(N/N=C/c1cccc(Br)c1)c1ccc(Br)cc1 |
| > 80 µM (inactive) | CCc1nc(N)nc(N)c1-c1ccc(Cl)cc1 |
| 3.92 µM | COc1ccc(Nc2nc(=O)c3cc([N+](=O)[O-])ccc3s2)cc1 |
| inactive | CCc1nc(N)nc(N)c1-c1ccc(Cl)c(N=[N+]=[N-])c1 |
